Source: article PMC8745369, “Discovery of 2,4-thiazolidinedione-tethered coumarins as novel selective inhibitors for carbonic anhydrase IX and XII isoforms” (Journal of Enzyme Inhibition and Medicinal Chemistry, 2022)
Like-named read-outs stand apart in the source and are kept apart here.

Key:
hCA IX = hCA IX (Homo sapiens, UniProt Q16790); test: Stopped flow CO2 hydrase assay, hCA IX inhibition; type: biochemical; settings: stopped flow technique; incubation time of 6 h; mean from 3 different assays; read-out: KI CA IX
[1] = test system: MCF-7 breast cancer cell line; test: MTT antiproliferative assay under hypoxic conditions; type: cell-based; settings: Homo sapiens, MCF7, hypoxic conditions (CoCl2), 48 h exposure, mean ± SD of three experiments
Method: 2. Anti-proliferative action toward human breast cell line
The examined human breast cancer cell line (MCF-7) has been obtained from American Type Culture Collection (ATCC). Cells line was maintained as monolayers in Dulbecco’s Modified Eagle’s Medium (DMEM) supplemented with 10% FBS, 2 mM L-glutamine, 100 U/ml penicillin and 100µg/ml streptomycin sulfate. Cobalt (II) chloride (CoCl2) was utilized as an inducer of HIF-1α to furnish a chemically-induced hypoxia. Cells were sub-cultured with trypsine /EDTA solution, counted with haemocytometer and plated onto 96-well plates (5000 cells/well) and left overnight to form a semi-confluent monolayer. Cell monolayers were treated in quadrates with […]
for an exposure time of 48 h. At the end of exposure, MTT solution in PBS (5 mg/ml) was then added to all well including no cell blank and left to incubate for 90 min. The formation of formazan crystals were visually confirmed using phase contract microscopy. DMSO (100 µl/well) was added to dissolve the formazan crystals with shaking for 10 min after which the absorbance was read at […]

hCA I = hCA I (Homo sapiens, UniProt P00915); test: Stopped flow CO2 hydrase assay, hCA I inhibition; type: biochemical
Chain of hCA I (P00915 whole entry): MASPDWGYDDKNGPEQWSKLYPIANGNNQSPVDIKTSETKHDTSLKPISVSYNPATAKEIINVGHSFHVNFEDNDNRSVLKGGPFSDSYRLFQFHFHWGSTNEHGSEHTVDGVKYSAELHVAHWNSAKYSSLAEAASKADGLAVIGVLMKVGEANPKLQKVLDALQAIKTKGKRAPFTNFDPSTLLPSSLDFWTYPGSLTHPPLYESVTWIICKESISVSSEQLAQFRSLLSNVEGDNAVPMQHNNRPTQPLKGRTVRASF

hCA XII = hCA XII (Homo sapiens, UniProt O43570); test: Stopped flow CO2 hydrase assay, hCA XII inhibition; type: biochemical; settings: for Ki: stopped flow technique, incubation time of 6 h, mean from 3 different assays, read-out: KI CA XII
Chain of hCA XII (O43570 25-354): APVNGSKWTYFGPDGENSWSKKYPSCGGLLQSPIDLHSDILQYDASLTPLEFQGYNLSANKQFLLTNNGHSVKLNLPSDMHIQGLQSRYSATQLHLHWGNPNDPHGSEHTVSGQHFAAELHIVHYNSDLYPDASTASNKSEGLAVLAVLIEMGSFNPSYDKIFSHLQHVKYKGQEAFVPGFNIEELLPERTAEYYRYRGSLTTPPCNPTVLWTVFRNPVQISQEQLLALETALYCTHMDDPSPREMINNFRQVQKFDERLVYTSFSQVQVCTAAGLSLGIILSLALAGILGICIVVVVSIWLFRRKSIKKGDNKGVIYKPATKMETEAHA

hCA II = hCA II (Homo sapiens, UniProt P00918); test: Stopped flow CO2 hydrase assay, hCA II inhibition; type: biochemical; settings: stopped flow technique; incubation time of 6 h; mean from 3 different assays; read-out: KI CA II
[2] = test system: MCF-7 breast cancer cells; test: Annexin V-FITC/propidium iodide apoptosis assay; type: cell-based, human; settings: treatment at IC50
Text: […]. This represents 57 folds total increase relative to the control in apoptotic cells.
IC50 values (concentration of sample
4. Annexin V-FITC Apoptosis Assay
Cells were then rinsed in binding

[3] = test system: MCF-7 breast cancer cells; test: Cell cycle analysis by flow cytometry
[4] = stopped flow technique, incubation time of 6 h, mean from 3 different assays, read-out: KI CA I

| SMILES | Ki (hCA IX) | IC50 [1] | melting point | Ki (hCA I; [4]) | Ki (hCA XII) | Ki (hCA II) | diminished inhibition for hCA XII relative to the unsubstituted analogue 5a (hCA XII; ratio of KI values) | Apoptosis Total ([2]; MCF-7, AV-FITC/PI positive stained cells) | Apoptosis Early ([2]; MCF-7, AV-FITC/PI, lower right quadrant) | total increase in apoptotic cells relative to the control ([2]; MCF-7, AV-FITC/PI) | Necrosis ([2]; MCF-7, AV-FITC/PI, upper left quadrant) | Apoptosis Late ([2]; MCF-7, AV-FITC/PI, upper right quadrant) | Ki (hCA I) | decrease in G2-M phase compared to the control [3] | increase of cell population at Sub-G1 compared to the control [3] |
| --- | --- | --- | --- | --- | --- | --- | --- | --- | --- | --- | --- | --- | --- | --- | --- |
| O=C(CN1C(=O)SC(=Cc2cccs2)C1=O)c1cc2cc(Br)ccc2oc1=O [11c, 3–(2-(6-Bromo-2-oxo-2H-chromen-3-yl)-2-oxoethyl)-5-(thiophen-2-ylmethylene)thiazolidine-2,4-dione] | 0.59 µM | 9.56 ± 0.56 µM | 255 to 257 °C | > 100 µM | 0.44 µM | > 100 µM |  |  |  |  |  |  |  |  |  |
| Cc1ccc(C=C2SC(=O)N(CC(=O)c3cc4ccccc4oc3=O)C2=O)o1 [11b, 5-((5-Methylfuran-2-yl)methylene)-3–(2-oxo-2–(2-oxo-2H-chromen-3-yl)ethyl)thiazolidine-2,4-dione] | 0.79 µM | 4.14 ± 0.24 µM | 227 to 229 °C | > 100 µM | 1.1 µM | > 100 µM |  |  |  |  |  |  |  |  |  |
| O=C(CN1C(=O)SC(=Cc2ccccc2Br)C1=O)c1cc2cc(Br)ccc2oc1=O [10n, 3–(2-(6-Bromo-2-oxo-2H-chromen-3-yl)-2-oxoethyl)-5–(2-bromobenzylidene)thiazolidine-2,4-dione] | 3.4 µM |  | 208 to 210 °C | > 100 µM | 2.8 µM | > 100 µM |  |  |  |  |  |  |  |  |  |
| COc1ccc(OC)c(C=C2SC(=O)N(CC(=O)c3cc4ccccc4oc3=O)C2=O)c1 [10d, 5–(2,5-Dimethoxybenzylidene)-3–(2-oxo-2–(2-oxo-2H-chromen-3-yl)ethyl)thiazolidine-2,4-dione] | 8.4 µM |  | 238 to 240 °C | > 100 µM | 6.2 µM | > 100 µM |  |  |  |  |  |  |  |  |  |
| O=C(CN1C(=O)CSC1=O)c1cc2cc(Br)ccc2oc1=O [5b, 3–(2-(6-Bromo-2-oxo-2H-chromen-3-yl)-2-oxoethyl)thiazolidine-2,4-dione] | 0.24 µM |  | 239 to 241 °C | > 100 µM | 0.31 µM | > 100 µM | 2 fold |  |  |  |  |  |  |  |  |
| Cc1ccc(C=C2SC(=O)N(CC(=O)c3cc4ccccc4oc3=O)C2=O)cc1 [10b, 5–(4-Methylbenzylidene)-3–(2-oxo-2–(2-oxo-2H-chromen-3-yl)ethyl)thiazolidine-2,4-dione] | 4.3 µM |  | 227 to 229 °C | > 100 µM | 4 µM | > 100 µM |  |  |  |  |  |  |  |  |  |
| COc1ccc(OC)c(C=C2SC(=O)N(CC(=O)c3cc4cc(Br)ccc4oc3=O)C2=O)c1 [10k, 3–(2-(6-Bromo-2-oxo-2H-chromen-3-yl)-2-oxoethyl)-5–(2,5-dimethoxybenzylidene) thiazolidine-2,4-dione] | 16.4 µM |  | 204 to 206 °C | > 100 µM | 6.6 µM | > 100 µM |  |  |  |  |  |  |  |  |  |
| O=C(CN1C(=O)SC(=Cc2ccccc2Cl)C1=O)c1cc2cc(Br)ccc2oc1=O [10m, 3–(2-(6-Bromo-2-oxo-2H-chromen-3-yl)-2-oxoethyl)-5–(2-chlorobenzylidene)thiazolidine-2,4-dione] | 2.9 µM |  | 192 to 194 °C | > 100 µM | 3.2 µM | > 100 µM |  |  |  |  |  |  |  |  |  |
| O=C(CN1C(=O)SC(=Cc2ccccc2)C1=O)c1cc2ccccc2oc1=O [10a, 5-Benzylidene-3–(2-oxo-2–(2-oxo-2H-chromen-3-yl)ethyl)thiazolidine-2,4-dione] | 0.82 µM | 3.13 ± 0.18 µM | 249 to 251 °C | > 100 µM | 0.75 µM | > 100 µM |  |  |  |  |  |  |  |  |  |
| COc1ccc(C=C2SC(=O)N(CC(=O)c3cc4cc(Br)ccc4oc3=O)C2=O)cc1 [10j, 3–(2-(6-Bromo-2-oxo-2H-chromen-3-yl)-2-oxoethyl)-5–(4-methoxybenzylidene)thiazolidine-2,4-dione] | 8.9 µM |  | 245 to 247 °C | > 100 µM | 4.9 µM | > 100 µM |  |  |  |  |  |  |  |  |  |
| COc1ccc(C=C2SC(=O)N(CC(=O)c3cc4ccccc4oc3=O)C2=O)cc1 [10c, 5–(4-Methoxybenzylidene)-3–(2-oxo-2–(2-oxo-2H-chromen-3-yl)ethyl)thiazolidine-2,4-dione] | 5.8 µM |  | 257 to 259 °C | > 100 µM | 4.5 µM | > 100 µM |  |  |  |  |  |  |  |  |  |
| O=C(CN1C(=O)SC(=Cc2ccccc2Br)C1=O)c1cc2ccccc2oc1=O [10g, 5–(2-Bromobenzylidene)-3–(2-oxo-2–(2-oxo-2H-chromen-3-yl)ethyl)thiazolidine-2,4-dione] | 2.3 µM |  | 230 to 232 °C | > 100 µM | 4.1 µM | > 100 µM |  |  |  |  |  |  |  |  |  |
| O=C(CN1C(=O)SC(=Cc2ccc([N+](=O)[O-])cc2)C1=O)c1cc2ccccc2oc1=O [10e, 5–(4-Nitrobenzylidene)-3–(2-oxo-2–(2-oxo-2H-chromen-3-yl)ethyl)thiazolidine-2,4-dione] | 12.3 µM |  | 263 to 265 °C | > 100 µM | 8 µM | > 100 µM |  |  |  |  |  |  |  |  |  |
| O=C(CN1C(=O)SC(=Cc2ccc([N+](=O)[O-])cc2)C1=O)c1cc2cc(Br)ccc2oc1=O [10l, 3–(2-(6-Bromo-2-oxo-2H-chromen-3-yl)-2-oxoethyl)-5–(4-nitrobenzylidene)thiazolidine-2,4-dione] | 18.2 µM |  | 229 to 231 °C | > 100 µM | 10.4 µM | > 100 µM |  |  |  |  |  |  |  |  |  |
| O=C(CN1C(=O)CSC1=O)c1cc2ccccc2oc1=O [5a, 3–(2-Oxo-2–(2-oxo-2H-chromen-3-yl)ethyl)thiazolidine-2,4-dione] | 0.12 µM |  |  | > 100 µM | 0.15 µM | > 100 µM |  |  |  |  |  |  |  |  |  |
| O=C(CN1C(=O)SC(=Cc2ccccc2)C1=O)c1cc2cc(Br)ccc2oc1=O [10h, 5-Benzylidene-3–(2-(6-bromo-2-oxo-2H-chromen-3-yl)-2-oxoethyl)thiazolidine-2,4-dione] | 0.93 µM | 11.1 ± 0.65 µM | 252 to 254 °C | > 100 µM | 0.87 µM | > 100 µM |  |  |  |  |  |  |  |  |  |
| O=C(CN1C(=O)SC(=Cc2ccccc2Cl)C1=O)c1cc2ccccc2oc1=O [10f, 5–(2-Chlorobenzylidene)-3–(2-oxo-2–(2-oxo-2H-chromen-3-yl)ethyl)thiazolidine-2,4-dione] | 2.2 µM |  | 208 to 211 °C | > 100 µM | 3.8 µM | > 100 µM |  |  |  |  |  |  |  |  |  |
| O=C(CN1C(=O)SC(=Cc2cccs2)C1=O)c1cc2ccccc2oc1=O [11a, 3–(2-Oxo-2–(2-oxo-2H-chromen-3-yl)ethyl)-5-(thiophen-2-ylmethylene)thiazolidine-2,4-dione] |  |  |  |  |  |  |  | 29.93% | 4.23% | 57 folds | 17.39% | 25.7% | > 100 µM | 2.6 folds | 19.7 folds |
| Cc1ccc(C=C2SC(=O)N(CC(=O)c3cc4cc(Br)ccc4oc3=O)C2=O)cc1 [10i, 3–(2-(6-Bromo-2-oxo-2H-chromen-3-yl)-2-oxoethyl)-5–(4-methylbenzylidene)thiazolidine-2,4-dione] | 6.2 µM |  | 224 to 225 °C | > 100 µM | 2.3 µM | > 100 µM |  |  |  |  |  |  |  |  |  |
| Cc1ccc(C=C2SC(=O)N(CC(=O)c3cc4cc(Br)ccc4oc3=O)C2=O)o1 [11d, 3–(2-(6-Bromo-2-oxo-2H-chromen-3-yl)-2-oxoethyl)-5-((5-methylfuran-2-yl)methylene)thiazolidine-2,4-dione] | 0.91 µM | 1.65 ± 0.1 µM | 236 to 238 °C | > 100 µM | 0.82 µM | > 100 µM |  |  |  |  |  |  |  |  |  |
